How the values were obtained:
[1] = Inhibition of calcium ionophore-stimulated LTB4 production in human PMN cells; assay type: functional, cell-based
[2] = molecular target: T1, Arachidonate 5-lipoxygenase-activating protein (Homo sapiens, UniProt P20292); assay: Displacement of [125I]L-691831 from FLAP
T1 sequence (P20292 whole entry): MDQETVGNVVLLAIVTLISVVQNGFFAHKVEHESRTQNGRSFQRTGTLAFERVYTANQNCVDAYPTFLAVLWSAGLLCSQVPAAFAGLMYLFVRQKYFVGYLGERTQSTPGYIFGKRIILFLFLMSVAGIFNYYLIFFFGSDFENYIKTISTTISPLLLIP

Blood = assay: Inhibition of calcium ionophore-stimulated LTB4 production in human whole blood; assay type: functional, tissue-based
[3] = molecular target: T2, Polyunsaturated fatty acid 5-lipoxygenase (Homo sapiens, UniProt P09917); assay: Inhibition of 5LOX
T2 sequence (P09917 whole entry): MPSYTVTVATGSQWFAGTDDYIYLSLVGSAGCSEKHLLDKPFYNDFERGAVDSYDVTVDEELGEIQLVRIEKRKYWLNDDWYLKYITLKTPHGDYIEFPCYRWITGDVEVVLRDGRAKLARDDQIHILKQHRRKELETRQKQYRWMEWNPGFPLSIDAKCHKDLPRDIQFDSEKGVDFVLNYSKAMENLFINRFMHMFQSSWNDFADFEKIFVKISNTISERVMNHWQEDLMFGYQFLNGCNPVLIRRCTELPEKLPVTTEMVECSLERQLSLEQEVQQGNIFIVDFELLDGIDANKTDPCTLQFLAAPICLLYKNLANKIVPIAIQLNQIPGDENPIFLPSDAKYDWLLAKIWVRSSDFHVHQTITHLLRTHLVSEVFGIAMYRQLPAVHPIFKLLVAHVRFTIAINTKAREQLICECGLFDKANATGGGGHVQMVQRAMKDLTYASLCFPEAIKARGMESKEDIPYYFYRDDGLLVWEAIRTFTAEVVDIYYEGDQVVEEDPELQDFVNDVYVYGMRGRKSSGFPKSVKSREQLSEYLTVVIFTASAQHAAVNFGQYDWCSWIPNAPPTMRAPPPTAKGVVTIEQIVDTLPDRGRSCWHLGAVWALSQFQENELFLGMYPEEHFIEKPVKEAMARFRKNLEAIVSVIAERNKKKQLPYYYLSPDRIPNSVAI

Canis familiaris = assay: Inhibition of ragweed-induced urinary LTE4 production in dog at 2.5 ug/kg/min, iv; assay type: functional; conditions: Canis lupus familiaris, Urine
[4] = Oral bioavailability in rat at 20 mg/kg; assay type: ADME, organism-based; conditions: in vivo
[5] = Cmax in rat at 20 mg/kg, po after 6 hrs; assay type: ADME, organism-based; set-up: dose 20 mg/kg, route oral; conditions: in vivo

Compound: CS(=O)(=O)CCOc1ccc(OCc2ccc3ccccc3n2)cc1C1(c2ccccc2)CC2CCC1C2 (centres undefined)
- IC50 ([1]; Homo sapiens, PMN): 4.2 nM
- IC50 [2]: 5.5 nM
- IC50 (Blood; Homo sapiens, Blood): 114 nM

Compound: O=C(Nc1cccnc1)Oc1ccc(OCc2ccccn2)c(C2(c3ccccc3)CC3CCC2C3)c1 (centres undefined)
- IC50 [2]: 181 nM
- IC50 (Blood; Homo sapiens, Blood): > 3000 nM

Compound: COC(=O)c1ccc(OCc2ccc3ccccc3n2)cc1C1(c2ccccc2)CC2CCC1C2 (centres undefined)
- IC50 ([1]; Homo sapiens, PMN): 2.6 nM
- IC50 [2]: 5.6 nM
- IC50 (Blood; Homo sapiens, Blood): 140 nM

Compound: c1ccc(C2(c3cc(OCc4ccc5ccccc5n4)ccc3OCc3ccccn3)CC3CCC2C3)cc1 (centres undefined)
- IC50 ([1]; Homo sapiens, PMN): 7 nM
- IC50 [2]: 4.1 nM
- IC50 (Blood; Homo sapiens, Blood): 225 nM

Compound: Oc1cc(OCc2ccc3ccccc3n2)ccc1C1(c2ccccc2)CC2CCC1C2 (centres undefined)
- IC50 ([1]; Homo sapiens, PMN): > 2370 nM
- IC50 [2]: 980 nM

Compound: COC(=O)COc1cc(OCc2ccc3ccccc3n2)ccc1C1(c2ccccc2)CC2CCC1C2 (centres undefined)
- IC50 ([1]; Homo sapiens, PMN): 47 nM
- IC50 [2]: 776 nM

Compound: O=C(O)COc1cc(OCc2ccc3ccccc3n2)ccc1C1(c2ccccc2)CC2CCC1C2 (centres undefined)
- IC50 ([1]; Homo sapiens, PMN): 152 nM
- IC50 [2]: 3590 nM

Compound: COC(=O)COc1ccc(OCc2ccc3ccccc3n2)cc1C1(c2ccccc2)CCCC1
- IC50 ([1]; Homo sapiens, PMN): 1.7 nM
- IC50 [2]: 9.3 nM
- IC50 (Blood; Homo sapiens, Blood): 890 nM

Compound: COC(=O)COc1ccc(OCc2ccc3ccccc3n2)cc1C1(c2ccccc2)CCCCC1
- IC50 ([1]; Homo sapiens, PMN): 1.8 nM
- IC50 [2]: 3.7 nM
- IC50 (Blood; Homo sapiens, Blood): 200 nM

Compound: COC(=O)COc1ccc(OCc2ccc3ccccc3n2)c(C2(c3ccccc3)CC3CCC2C3)c1 (centres undefined)
- IC50 ([1]; Homo sapiens, PMN): 5.9 nM
- IC50 [2]: 94 nM

Compound: O=C(O)COc1ccc(OCc2ccc3ccccc3n2)cc1C1(c2ccccc2)CC2CCC1C2 (centres undefined)
- IC50 ([1]; Homo sapiens, PMN): 16 nM
- IC50 [2]: 14 nM
- IC50 (Blood; Homo sapiens, Blood): > 3000 nM

Compound: O=C(O)CCCOc1ccc(OCc2ccc3ccccc3n2)cc1C1(c2ccccc2)CC2CCC1C2 (centres undefined)
- IC50 ([1]; Homo sapiens, PMN): 8 nM
- IC50 [2]: 3.5 nM
- IC50 (Blood; Homo sapiens, Blood): 300 nM

Compound: COc1ccc(OCc2ccc3ccccc3n2)cc1C1(c2ccccc2)CC2CCC1C2 (centres undefined)
- IC50 ([1]; Homo sapiens, PMN): 9 nM
- IC50 [2]: 8.6 nM
- IC50 (Blood; Homo sapiens, Blood): 1100 nM

Compound: CCCCOc1ccc(OCc2ccc3ccccc3n2)cc1C1(c2ccccc2)CC2CCC1C2 (centres undefined)
- IC50 ([1]; Homo sapiens, PMN): 80 nM
- IC50 [2]: 6 nM
- IC50 (Blood; Homo sapiens, Blood): > 3000 nM

Compound: c1ccc2nc(COc3ccc(C4(c5ccc(OCc6ccc7ccccc7n6)cc5)CC5CCC4C5)cc3)ccc2c1 (centres undefined)
- IC50 ([1]; Homo sapiens, PMN): > 1800 nM
- IC50 [2]: 127 nM

Compound: OCCOc1ccc(C2(c3ccc(OCCO)cc3)CC3CCC2C3)cc1 (centres undefined)
- IC50 [3]: > 8000 nM
- IC50 ([1]; Homo sapiens, PMN): 60 nM
- IC50 [2]: 387 nM

Compound: Oc1ccc(C2(c3ccc(OCc4ccc5ccccc5n4)cc3)CC3CCC2C3)cc1 (centres undefined)
- IC50 ([1]; Homo sapiens, PMN): 186 nM
- IC50 [2]: 145 nM

Compound: COC(=O)COc1ccc(C2(c3ccc(OCc4ccc5ccccc5n4)cc3)CC3CCC2C3)cc1 (centres undefined)
- IC50 ([1]; Homo sapiens, PMN): 169 nM
- IC50 [2]: 182 nM

Compound: Oc1ccc(O)c(C2(c3ccccc3)CC3CCC2C3)c1 (centres undefined)
- IC50 ([1]; Homo sapiens, PMN): 418 nM
- IC50 [2]: 2070 nM

Compound: Oc1ccc(OCc2ccc3ccccc3n2)cc1C1(c2ccccc2)CC2CCC1C2 (centres undefined)
- IC50 [3]: 5000 nM
- IC50 ([1]; Homo sapiens, PMN): 19 nM
- IC50 [2]: 13.2 nM
- IC50 (Blood; Homo sapiens, Blood): 580 nM

Compound: c1ccc(C2(c3cc(OCc4ccc5occc5n4)ccc3OCc3ccccn3)CC3CCC2C3)cc1 (centres undefined)
- IC50 ([1]; Homo sapiens, PMN): 2.2 nM
- IC50 [2]: 4.9 nM
- IC50 (Blood; Homo sapiens, Blood): 80 nM

Compound: O=C(O)COc1ccc(C2(c3ccc(OCc4ccc5ccccc5n4)cc3)CC3CCC2C3)cc1 (centres undefined)
- IC50 [3]: > 6300 nM
- IC50 ([1]; Homo sapiens, PMN): 44 nM
- IC50 [2]: 98 nM

Compound: O=C(O)c1ccc(OCc2ccc3ccccc3n2)cc1C1(c2ccccc2)CC2CCC1C2 (centres undefined)
- IC50 ([1]; Homo sapiens, PMN): 9.5 nM
- IC50 [2]: 12.4 nM

Compound: c1ccc(C2(c3cc(OCc4nc5ccccc5s4)ccc3OCc3ccccn3)CC3CCC2C3)cc1 (centres undefined)
- IC50 ([1]; Homo sapiens, PMN): 7 nM
- IC50 [2]: 7.6 nM
- IC50 (Blood; Homo sapiens, Blood): 220 nM

Compound: CCOC(=O)CCCOc1ccc(OCc2ccc3ccccc3n2)cc1C1(c2ccccc2)CC2CCC1C2 (centres undefined)
- IC50 ([1]; Homo sapiens, PMN): 42 nM
- IC50 [2]: 3.7 nM
- IC50 (Blood; Homo sapiens, Blood): 150 nM

Compound: c1ccc(C2(c3cc(OCc4ccccn4)ccc3OCc3ccccn3)CC3CCC2C3)cc1 (centres undefined)
- IC50 ([1]; Homo sapiens, PMN): 3.9 nM
- IC50 [2]: 18.3 nM
- IC50 (Blood; Homo sapiens, Blood): 275 nM

Compound: c1ccc(C2(c3cc(OCc4ccc5ccccc5n4)ccc3OCc3ccc4ccccc4n3)CCCC2)cc1
- IC50 ([1]; Homo sapiens, PMN): 10.2 nM
- IC50 [2]: 4.5 nM
- IC50 (Blood; Homo sapiens, Blood): 1080 nM

Compound: c1ccc(C2(c3cc(OCc4ccc5ccccc5n4)ccc3OCc3ccc4ccccc4n3)CCCCC2)cc1
- IC50 ([1]; Homo sapiens, PMN): 6.1 nM
- IC50 [2]: 4.2 nM
- IC50 (Blood; Homo sapiens, Blood): 3000 nM

Compound: COC(=O)COc1ccc(OCc2ccc3ccccc3n2)cc1C1(c2ccccc2)CC2CCC1C2 (centres undefined)
- IC50 [3]: > 6000 nM
- IC50 ([1]; Homo sapiens, PMN): 5 nM
- IC50 [2]: 5 nM
- IC50 (Blood; Homo sapiens, Blood): 290 nM

Compound: O=C(O)COc1ccc(OCc2ccc3ccccc3n2)c(C2(c3ccccc3)CC3CCC2C3)c1 (centres undefined)
- IC50 ([1]; Homo sapiens, PMN): 282 nM
- IC50 [2]: 3150 nM

Compound: Oc1ccc(OCc2ccc3ccccc3n2)cc1C1(c2ccccc2)CCCC1
- IC50 ([1]; Homo sapiens, PMN): 5 nM
- IC50 [2]: 22 nM
- IC50 (Blood; Homo sapiens, Blood): 1920 nM

Compound: O=C(Nc1cccnc1)Oc1ccc(OCc2ccc3ccccc3n2)cc1C1(c2ccccc2)CCCC1
- IC50 ([1]; Homo sapiens, PMN): < 1.3 nM
- IC50 [2]: 2.4 nM
- IC50 (Blood; Homo sapiens, Blood): 52 nM

Compound: c1ccc(C2(c3cc(OCc4cccnc4)ccc3OCc3ccccn3)CC3CCC2C3)cc1 (centres undefined)
- IC50 ([1]; Homo sapiens, PMN): 24 nM
- IC50 [2]: 134 nM

Compound: c1ccc(COc2ccc(OCc3ccc4ccccc4n3)cc2C2(c3ccccc3)CC3CCC2C3)cc1 (centres undefined)
- IC50 ([1]; Homo sapiens, PMN): 217 nM
- IC50 [2]: 8.6 nM
- IC50 (Blood; Homo sapiens, Blood): > 3000 nM

Compound: CN(C)CCOc1ccc(OCc2ccc3ccccc3n2)cc1C1(c2ccccc2)CC2CCC1C2 (centres undefined)
- IC50 ([1]; Homo sapiens, PMN): 8.7 nM
- IC50 [2]: 6.5 nM
- IC50 (Blood; Homo sapiens, Blood): 335 nM

Compound: O=C(Nc1cccnc1)Oc1ccc(OCc2nc3ccccc3s2)cc1C1(c2ccccc2)CC2CCC1C2 (centres undefined)
- IC50 ([1]; pmn): 1.8 nM
- IC50 [2]: 2.5 nM
- IC50 (Blood): 86 nM

Compound: O=C(Nc1cccnc1)Oc1ccc(OCc2nc3ccccc3s2)cc1C1(c2ccccc2)CC2CCC1C2 (racemic)
- inhibition in vivo at 2.5 µg/kg/min (Canis familiaris): 89%
- IC50 ([1]; pmn): 2 nM
- IC50 [2]: 2.8 nM
- bioavailability [4]: 19%
- Cmax [5]: 1100 nM
- IC50 (Blood): 33 nM

Compound: O=C(Nc1cccnc1)Oc1ccc(OCc2nc3ccccc3s2)cc1C1(c2ccccc2)CC2CCC1C2 (single isomer, unassigned; (-))
- IC50 ([1]; Homo sapiens, PMN): 3 nM
- IC50 [2]: 2.4 nM
- IC50 (Blood): 37 nM

Compound: CC(C)(C)Sc1c(CC(C)(C)C(=O)O)n(Cc2ccc(Cl)cc2)c2ccc(OCc3ccc4ccccc4n3)cc12 [QUIFLAPON]
- IC50 ([1]; Homo sapiens, PMN): 3.1 nM
- IC50 (Blood; Homo sapiens, Blood): 510 nM

Reference: ChEMBL document CHEMBL1141525, “Substituted 2,2-bisaryl-bicycloheptanes as novel and potent inhibitors of 5-lipoxygenase activating protein” (Bioorg Med Chem Lett, 2008)
